Data set [1] relates to isolated myocardium of guinea-pigs (right ventricular papillary muscles). In words: Effects on the action potential duration in the isolated myocardium of guinea-pigs. Format: cell-based, guinea-pigs (male, Hartley strain). The settings on record: Cavia porcellus, 10 min, stimulated at 1 Hz, 37° C.; for APD90 prolongation (%) at 10 µM / inhibition at 10 µM: 10^-5 M, another 10 min; for inhibition at 10 µM / inhibition at 1 µM: read-out: Vmax inhibition (%); for APD90 prolongation (%) at 1 µM / inhibition at 1 µM: 10^-6 M, first 10 min. As for the experimental part: Right ventricular papillary muscles were isolated from male guinea-pigs of Hartley strain weighing 300 to 400 g and fixed at the bottom of an acrylic bath with pins. They were perfused with Tyrode solution kept at 37° C. and saturated with a mixture of 95% O2 and 5% CO2. The muscles were stimulated at 1 Hz with rectangular pulses of 1 msec duration and supramaximal voltage. Action potentials were recorded using conventional glass microelectrodes filled with 3M KCl. The duration of the action potential and the maximum velocity of the upstroke of the action potential (Vmax) were determined. Each of the test compounds was included in Tyrode solution at 10^-6 or 10^-5 M and perfused.
The test compounds shown in Example 1 were as follows. Sotalol, a beta-adrenoceptor antagonist was employed as the reference drug because this compound is known to prolong the duration of the myocardial action potential.
Results are shown below in terms of APD90 prolongation (%) and Vmax inhibition (%).

Data set [2] in a line: Acute toxicity test, intravenous injection in mice. Particulars: mouse, in vivo, male ddy mice weighing 20 to 30 g. As for the experimental part:
Acute toxicity tests of typical compounds (the above-mentioned compounds A and B) of the present invention were conducted by applying them to male ddy mice weighing 20 to 30 g by intravenous injection.
Acute toxicity tests of typical compounds (the above-mentioned compounds A to E) of the present invention were conducted by applying them to male ddy mice weighing 20 to 30 g by intravenous injection.

For the compound `Cc1cccc(CCN(C)CCCC(=O)c2ccc(NS(C)(=O)=O)cc2)n1` [compound (2) C], in data set [1], the APD90 prolongation (%) at 10 µM is 31%; the inhibition (as a rule, the percentage by which the read-out fell short of the control) at 10 µM is 0%; the APD90 prolongation (%) at 1 µM worked out at 17%; the inhibition at 1 µM was determined as 0%.
On to `CS(=O)(=O)Nc1ccc(C(CO)N2CCC(C(=O)c3ccc(Cl)cc3)CC2)cc1` (centres unmarked) [compound (3) B], for which, in data set [1], the APD90 prolongation (%) at 10 µM was determined as 11%, the inhibition at 10 µM came to 0%, the APD90 prolongation (%) at 1 µM was 13% and the inhibition at 1 µM came to 0%. Besides, the LD50 (as a rule, the dose expected to kill half of the subjects tested) in data set [2] lay within 180 to 400 mg/kg.
`CS(=O)(=O)Nc1ccc(SC2CCN(CCc3cccnc3)CC2)cc1` [compound (1) A]: in data set [1], the APD90 prolongation (%) at 10 µM was determined as 20%, the inhibition at 10 µM is 0%, the APD90 prolongation (%) at 1 µM was found to be 11% and the inhibition at 1 µM amounted to 0%. In data set [2], this compound registered an LD50 of 180 to 400 mg/kg.
`CCN(CCCC(=O)c1ccc(NS(C)(=O)=O)cc1)CCc1cccc(C)n1` [compound (2) D]: in data set [1], the APD90 prolongation (%) at 10 µM was determined as 31%, the inhibition at 10 µM turned out to be 0%, the APD90 prolongation (%) at 1 µM worked out at 17% and the inhibition at 1 µM was 0%.
Regarding `Cc1cccc(CCN(C)CCCCC(=O)c2ccc(NS(C)(=O)=O)cc2)n1` [compound (2) E], in data set [1], the APD90 prolongation (%) at 10 µM was found to be 27%, the inhibition at 10 µM is 0%, the APD90 prolongation (%) at 1 µM stood at 14% and the inhibition at 1 µM was 0%.
With `CS(=O)(=O)Nc1ccc(C(CO)N2CCC(C(=O)c3ccc(F)cc3)CC2)cc1` (centres unmarked) [compound (3) A], in data set [1], the APD90 prolongation (%) at 10 µM is 25%, the inhibition at 10 µM is 0%, the APD90 prolongation (%) at 1 µM is 16% and the inhibition at 1 µM was 0%. The compound also displayed an LD50 in data set [2] of 180 to 400 mg/kg.
`CC(C)NCC(O)c1ccc(NS(C)(=O)=O)cc1` (centres unmarked) [Sotalol, reference compound]: in data set [1], the APD90 prolongation (%) at 10 µM came out at 7%, the inhibition at 10 µM came to 0%, the APD90 prolongation (%) at 1 µM is 0% and the inhibition at 1 µM was 0%.
As to `CS(=O)(=O)Nc1ccc([S+]([O-])C2CCN(CCc3cccnc3)CC2)cc1` (centres unmarked) [compound (1) B], in data set [1], the APD90 prolongation (%) at 10 µM is 40%, the inhibition at 10 µM came to 0%, the APD90 prolongation (%) at 1 µM was found to be 14% and the inhibition at 1 µM is 0%. Moreover, the LD50 in data set [2] was in the range of 180 to 400 mg/kg.
Regarding `Cc1cccc(CCN(C)CC(=O)c2ccc(NS(C)(=O)=O)cc2)n1` [compound (2) A], in data set [1], the APD90 prolongation (%) at 10 µM is 16%, the inhibition at 10 µM stood at 0%, the APD90 prolongation (%) at 1 µM amounted to 12% and the inhibition at 1 µM is 0%.
As to `Cc1cccc(CCN(C)CCC(=O)c2ccc(NS(C)(=O)=O)cc2)n1` [compound (2) B], in data set [1], the APD90 prolongation (%) at 10 µM stood at 19%, the inhibition at 10 µM was 0%, the APD90 prolongation (%) at 1 µM is 18% and the inhibition at 1 µM turned out to be 0%.

The values are drawn from US5162347A, “Piperidine derivatives and therapeutic and preventive agents for arrhythmia containing same” (Eisai Co., Ltd., priority 1987, dated 1992).
